Measurements: patent US20110269793A1, “METHOD FOR PREVENTING TAU PROTEIN AGGREGATION AND TREATING ALZHEIMER'S DISEASE WITH A QUINOLINE DERIVATIVE COMPOUND” (priority 2010, published 2011)
Where two headings read alike, the source gives them in different places.

Tests used:
[1] = Octanol/water partition coefficient (Log P); format: physicochemical; conditions: for Liposolubility expressed as Log P (in words): as candidates to cross the BHE; for logP: n-octanol / PBS 0.1× buffer, read-out: Log P (experimental)
Protocol: Pharm. Hung. 62 (1-2): 55-64, wherein 2 phases are used, an aqueous phase comprising a buffer solution PBS 0.1× pH 7.4 that is saturated with an n-octanol solution that comprises the organic phase.
Stock solutions at 1.0 mg/mL of each quinoline being studied were prepared in PBS buffer 0.1× pH 7.4 saturated in octanol. […] Starting from these solutions, dilutions were made for a range concentration of between 1.0 mg/mL and 100 μg/mL to establish their maximum absorbance in the UV-visible region.
Then the tested quinolines were dissolved in PBS 0.1× pH 7.4 saturated in n-octanol and agitated for 30 min. at room temperature. Subsequently, this emulsion was left to settle for 48 h and a centrifugation at 3,000 rpm for 10 minutes was carried out to separate the phases. Both the octanol/water partition coefficient and Log P were established using the difference in the absorbance in the UV-visible region for each compound using equation 1:
[THQ in octanol]=[THQ start]−[THQ buffer] Éq. 1:
The concentrations for THQ start are established using equation 2: […]
Subsequently, the P quotient in established between both phases as described by equation 3: […]
Finally the partition coefficient is established by Log P.
For this test 2 controls were used: clidinium bromide that is a quaternary amine that is not liposoluble, and sodium thiopental, which is a very liposoluble barbituric anaesthetic. Each part of the test was done in triplicate.

[2] = system: tau protein from bovine brain; conditions: THQ 55 1.0 to 50 μM, FIG. 11
Protocol: (§1) Effect of the quinolines in the tau aggregation. Turbidimetric studies. Tau aggregation was monitored by means of its absorbance at λ 340 nm using UV spectrophotometry. Purified and highly concentrated tau protein from bovine brain (2.0 mg/mL) was re-suspended in MES 0.1 M pH 7.2 buffer and induced to polymerize in the form of PHFs in the presence of polyanions (heparin at a concentration of 200 μg/mL) at a final volume of 1.0 mL. This mixture was incubated at 37° C. and maintained under gentle agitation for 7 days. At the same time, another sample containing the tau protein, heparin (200 μg/mL) and the selected quinoline at different concentrations from 1.0 to 50 μM and a final volume of 1.0 mL was incubated in the same way, thus verifying the effect that quinolines have over tau aggregation. […] As an additional control the tau protein was replaced with water in order to measure the absorbance of these quinolines. Each sample was carried out in triplicate.

[3] = system: tau protein from bovine brain; conditions: 7 days 37° C.; for Tau polymer concentration: tau 2.0 mg/mL, heparin 200 μg/mL, +control 3.00, −control 1.38
Protocol: as §1
Effect of quinolines in tau aggregation. Sedimentation studies. After 7 days of incubation at 37° C. under gentle agitation, the sedimentation of the tau aggregates was conducted in the presence and in absence of quinolines. To this purpose, 400 μl were taken of each one of the samples prepared for the turbidimetric analysis and they were centrifuged at 42,000 g (18.000 rpm using the AH-650 rotor) at 37° C. for 25 min. The pellet obtained from each sample of this centrifugation was re-suspended in 50 μL of MES 0,1 M slightly alkaline (pH 7.2) buffer and the concentration of protein was established for each one of them. In this procedure, and because the sample volume is very small, a nanophotometer was used, measuring the concentration of the sedimented and re-suspended protein at λ 280 nm.

hTau protein [4] = biological target: T1, hTau protein (Homo sapiens, UniProt P10636); conditions: hTau 230 nM, ^3H-AST 52 nM, cold ligand 10 nM to 10 μM
T1 sequence (P10636 with tags, fused parts or gaps): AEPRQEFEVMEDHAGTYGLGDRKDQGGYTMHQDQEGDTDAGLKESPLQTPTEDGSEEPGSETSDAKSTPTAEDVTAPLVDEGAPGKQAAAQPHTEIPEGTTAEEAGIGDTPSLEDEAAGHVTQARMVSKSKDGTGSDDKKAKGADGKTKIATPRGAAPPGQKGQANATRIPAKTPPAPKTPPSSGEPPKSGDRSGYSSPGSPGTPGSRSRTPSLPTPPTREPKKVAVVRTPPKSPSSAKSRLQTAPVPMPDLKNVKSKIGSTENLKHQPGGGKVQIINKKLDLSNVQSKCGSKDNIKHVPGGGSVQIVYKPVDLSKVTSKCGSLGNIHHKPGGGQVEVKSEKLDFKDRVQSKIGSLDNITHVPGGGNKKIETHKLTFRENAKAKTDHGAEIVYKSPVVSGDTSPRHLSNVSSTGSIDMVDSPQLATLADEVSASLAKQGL
Protocol: (§4) Subsequently, the tau protein, ^3H-AST and the quinolines are incubated for 4 hours at 25° C. under gentle agitation and the procedure depicted in FIG. 3 is followed.

hTau protein [5] = biological target: T1, hTau protein; assay: biochemical
Protocol: as §4

Human Tau (441a.a.) = Human Tau (441a.a.) (Homo sapiens, UniProt P10636); assay: Scatchard saturation test with ^3H-AST, tau filaments; format: binding; conditions: for Affinity to tau filaments (in words): saturation studies, FIG. 12
Chain of Human Tau (441a.a.) (P10636 1-441 isoform P10636-8): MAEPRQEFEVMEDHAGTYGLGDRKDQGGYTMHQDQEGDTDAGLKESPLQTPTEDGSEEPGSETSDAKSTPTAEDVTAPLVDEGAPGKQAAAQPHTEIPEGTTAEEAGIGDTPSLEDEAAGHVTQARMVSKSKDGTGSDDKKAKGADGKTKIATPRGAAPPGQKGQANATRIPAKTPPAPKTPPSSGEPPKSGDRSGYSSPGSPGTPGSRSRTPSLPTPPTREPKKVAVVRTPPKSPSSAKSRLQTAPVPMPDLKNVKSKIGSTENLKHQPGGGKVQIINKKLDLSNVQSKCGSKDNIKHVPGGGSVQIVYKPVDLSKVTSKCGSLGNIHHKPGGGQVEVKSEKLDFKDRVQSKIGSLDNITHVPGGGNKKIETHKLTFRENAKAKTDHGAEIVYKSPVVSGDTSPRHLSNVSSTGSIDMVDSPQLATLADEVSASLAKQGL
Source text: (§2) Interactions of quinolines with tau and in vitro displacement tests with H^3-AST. In previous laboratory tests by the inventor and also from other authors (Okamura N., Suemoto T., Furumoto S., Suzuki M., Shimadzu H., Akatsu H., Yamamoto T., Fujiwara H., Nemoto M., Maruyama M., Arai H., Yanai K., Sawada T., Kudo Y. (2005), Quinoline and becimidazole derivatives: candidate probes for in vivo imaging of tau pathology in Alzheimer's disease, J. Neurosci. 25: 10857-10862; Rojo L., Avila M., Chandia M., and Maccioni R. B. (2007), ^18F Lansoprazole as PET radiotracer, Chemical and biological studies towards the development of a New PET Radiotracer, International Conference on Clinical PET and Molecular Nuclear Medicine. 10-14 November, Bangkok) the Kd and binding maximums specific to some benzimidazols of clinical use were established, among them [O-methyl-3H]-astemizol (FIG. 2) through the interaction established with the tau protein. With this background Scatchard and displacement tests are performed with the quinolines mentioned before.
(§3) For the Scatchard test a fixed tau protein concentration (230 nM) and variable concentrations of ^3H-AST between 10 and 120 nM was used, leading to a final volume of 20 μL with 8% ethanol (EtOH 8%). The tau protein underwent treatment previous to this test, incubating the same at 37° C. under gentle agitation for 7 days. Subsequently the tau protein and ^3H-AST were incubated for 4 h at 25° C. under gentle agitation. Then this solution was filtered under vacuum for 10 minutes and the filtering papers were dried at room temperature, and transferred to a vial with 1.0 mL of scintillating liquid. It is then left in the dark and finally the counts per minute (cpm) are measured in a scintillating counting equipment.

Human PHFs = assay: Scatchard saturation test with ^3H-AST, PHFs; format: binding
Source text: as §2, §3

mGluR I = mGluR I (Homo sapiens, UniProt Q13255); conditions: Yanamala et al. 2008; cited from earlier work
Chain of mGluR I (Q13255 19-1194): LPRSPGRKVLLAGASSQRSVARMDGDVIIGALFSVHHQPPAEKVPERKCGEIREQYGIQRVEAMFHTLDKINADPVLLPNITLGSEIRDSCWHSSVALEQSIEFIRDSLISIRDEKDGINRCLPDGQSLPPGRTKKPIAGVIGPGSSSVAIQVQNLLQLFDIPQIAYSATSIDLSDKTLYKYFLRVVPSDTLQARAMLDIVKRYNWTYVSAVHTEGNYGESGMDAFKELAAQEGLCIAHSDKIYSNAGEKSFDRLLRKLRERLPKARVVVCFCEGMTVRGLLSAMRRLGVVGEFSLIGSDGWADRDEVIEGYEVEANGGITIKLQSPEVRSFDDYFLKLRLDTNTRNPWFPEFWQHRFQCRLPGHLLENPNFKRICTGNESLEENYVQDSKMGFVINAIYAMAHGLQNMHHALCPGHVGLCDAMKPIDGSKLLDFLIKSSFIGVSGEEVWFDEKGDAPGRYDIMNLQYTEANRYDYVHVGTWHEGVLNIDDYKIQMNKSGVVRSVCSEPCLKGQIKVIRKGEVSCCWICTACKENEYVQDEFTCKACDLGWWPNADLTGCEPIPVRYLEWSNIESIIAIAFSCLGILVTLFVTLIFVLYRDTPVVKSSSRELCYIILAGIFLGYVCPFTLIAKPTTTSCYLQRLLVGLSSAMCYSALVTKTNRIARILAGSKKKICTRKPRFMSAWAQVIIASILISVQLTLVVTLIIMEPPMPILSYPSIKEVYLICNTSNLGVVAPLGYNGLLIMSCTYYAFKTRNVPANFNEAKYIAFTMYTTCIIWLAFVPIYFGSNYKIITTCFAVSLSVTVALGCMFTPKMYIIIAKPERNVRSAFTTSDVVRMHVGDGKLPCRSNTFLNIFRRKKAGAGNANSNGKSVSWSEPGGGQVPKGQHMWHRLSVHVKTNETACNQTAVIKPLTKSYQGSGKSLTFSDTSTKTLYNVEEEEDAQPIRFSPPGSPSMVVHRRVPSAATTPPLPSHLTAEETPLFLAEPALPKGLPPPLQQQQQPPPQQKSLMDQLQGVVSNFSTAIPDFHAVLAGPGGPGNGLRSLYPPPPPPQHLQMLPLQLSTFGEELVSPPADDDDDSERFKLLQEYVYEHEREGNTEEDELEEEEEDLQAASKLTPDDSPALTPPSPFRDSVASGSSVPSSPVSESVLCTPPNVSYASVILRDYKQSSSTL

mGluR 5 = mGluR 5 (Homo sapiens, UniProt P41594); conditions: Yanamala et al. 2008; cited from earlier work
Chain of mGluR 5 (P41594 21-1212): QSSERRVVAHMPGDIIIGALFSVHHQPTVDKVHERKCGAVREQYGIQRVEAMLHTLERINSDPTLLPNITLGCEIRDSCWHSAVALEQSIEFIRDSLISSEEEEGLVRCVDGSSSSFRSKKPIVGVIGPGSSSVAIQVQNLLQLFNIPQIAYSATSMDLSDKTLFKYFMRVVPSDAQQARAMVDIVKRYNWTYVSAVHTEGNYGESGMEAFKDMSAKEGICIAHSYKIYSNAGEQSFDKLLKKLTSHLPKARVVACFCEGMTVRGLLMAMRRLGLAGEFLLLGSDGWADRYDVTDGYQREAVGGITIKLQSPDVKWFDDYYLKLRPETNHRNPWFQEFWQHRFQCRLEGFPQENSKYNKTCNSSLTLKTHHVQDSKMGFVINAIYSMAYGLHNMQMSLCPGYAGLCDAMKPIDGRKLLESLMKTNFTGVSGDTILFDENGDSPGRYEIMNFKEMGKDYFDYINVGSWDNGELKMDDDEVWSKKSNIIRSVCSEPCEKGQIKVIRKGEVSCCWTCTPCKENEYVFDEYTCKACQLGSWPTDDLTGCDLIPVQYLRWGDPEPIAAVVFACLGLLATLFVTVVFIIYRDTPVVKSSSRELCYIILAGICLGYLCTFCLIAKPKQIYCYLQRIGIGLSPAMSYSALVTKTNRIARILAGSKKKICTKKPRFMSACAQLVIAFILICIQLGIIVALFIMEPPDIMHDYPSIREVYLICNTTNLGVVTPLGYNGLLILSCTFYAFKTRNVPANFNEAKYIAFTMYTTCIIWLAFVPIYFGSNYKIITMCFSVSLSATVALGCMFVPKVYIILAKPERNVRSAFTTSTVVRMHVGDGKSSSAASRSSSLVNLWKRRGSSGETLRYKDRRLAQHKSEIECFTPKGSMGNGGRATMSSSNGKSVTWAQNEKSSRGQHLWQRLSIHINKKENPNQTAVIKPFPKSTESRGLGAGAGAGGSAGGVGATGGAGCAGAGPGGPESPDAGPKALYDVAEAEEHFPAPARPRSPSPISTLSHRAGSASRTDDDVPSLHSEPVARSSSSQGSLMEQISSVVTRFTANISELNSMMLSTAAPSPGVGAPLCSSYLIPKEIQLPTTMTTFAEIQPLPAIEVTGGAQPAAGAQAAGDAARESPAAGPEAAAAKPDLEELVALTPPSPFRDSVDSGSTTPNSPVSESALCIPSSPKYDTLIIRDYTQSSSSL

[6] = partition coefficient octanol/PBS buffer 0.1× pH 7.4, triplicate
[7] = tau filaments induced with heparin

In the case of `Cc1ccc2nc(-c3ccc(N)cc3)ccc2c1` [THQ 55, 2-(4-aminophenyl), 6-(methyl)quinoline], the “Liposolubility expressed as Log P (in words)” value [1] is reported as “optimal”, the logP [1, 6] is reported as 1.97 and the “Inhibition of tau aggregation (absorbance at λ 340)” value [2] is reported as “high capacity to inhibit tau aggregation”. For the same compound, the “Effect over the auto-aggregation of tau protein (sedimented protein at λ 280 nm)” value [3] was “pronounced inhibitory effect”, the Tau polymer concentration ([3]; compound 1.0 μM) was 2.72 + 0.002 mg/mL and the Tau polymer concentration ([3]; compound 10 μM) was 2.43 + 0.003 mg/mL. The Tau polymer concentration ([3]; compound 50.0 μM) was 0.79 + 0.004 mg/mL, the “Displacement of the radioligand” value (hTau protein [4]) was “do not displace the radioligand” and the Ki (hTau protein [5]) was greater than 10000 nM.

With `COc1ccc(CCN2CCC(Nc3nc4ccccc4n3Cc3ccc(F)cc3)CC2)cc1` [^3H-AST, [O-methyl-3H]-astemizol] the Kd (Human Tau (441a.a.); [7]) was 1.86 nM and the Kd (Human PHFs) was 3.94 nM.

In the case of `O=C(Cc1ccccc1)c1ccc2nc3c(cc2c1)CCCO3` [R214127], the “Docking Energies” value (mGluR I) is listed as -7.34 kcal/mol.

In the case of `Cc1ccc(-c2ccc3cc(C)ccc3n2)cc1` [THQ 4S, 2-(4methylphenyl), 6-(methyl)quinoline], the “Liposolubility expressed as Log P (in words)” value [1] is reported as “optimal”, the logP [1, 6] is reported as 2.66 and the “Displacement of the radioligand” value (hTau protein [4]) is reported as “do not displace the radioligand”. It also gave a Ki (hTau protein [5]) greater than 10000 nM.

In the case of `COc1ccc2nc(-c3ccc(C)cc3)ccc2c1` [THQ 3S, 2-(4-methylphenyl), 6-(O-methyl)quinoline], the “Log P (experimental)” value [1, 6] is reported as 0.434 + 0.005.

For `COc1ccc(CCN2CCC(Nc3nc4ccccc4n3Cc3ccc(F)cc3)CC2)cc1` [Ast, Astemizol, reference compound], the Tau polymer concentration ([3]; compound 10 μM) was 2.84 + 0.002 mg/mL and the “Affinity to tau filaments (in words)” value (Human Tau (441a.a.)) was “high affinity”.

For `[3H]COc1ccc(CCN2CCC(Nc3nc4ccccc4n3Cc3ccc(F)cc3)CC2)cc1` [^3H-AST, [O-methyl-3H]-astemizol], the Bmax/Kd index (Human Tau (441a.a.)) was 3.00, the “Affinity to tau filaments (in words)” value (Human Tau (441a.a.)) was “high affinity” and the Bmax (Human Tau (441a.a.); [7]) was 5.7 pmol/nmol tau. The Bmax (Human PHFs) was 13.07 nM and the Bmax/Kd index (Human PHFs) was 3.316.

In the case of `Cc1cccc(-c2ccc3cc(C)ccc3n2)c1` [THQ 12S, 2-(5-methylphenyl), 6-(methyl)quinoline], the “Liposolubility expressed as Log P (in words)” value [1] is reported as “optimal” and the logP [1, 6] is reported as 2.58.

In the case of `Cc1cccc(C#Cc2ccccc2)n1` [MPEP], the “Docking Energies” value (mGluR 5) is listed as -7.77 kcal/mol.

Compound `Cc1ccc(-c2ccc3cccc(Br)c3n2)cc1` [THQ 9S, 2-(4-methylphenyl), 8-(bromo)quinoline] has a logP [1, 6] of -0.214.
